Assays:
[1] = system: rash caused by monoclonal EGFR inhibitors; test: Treatment of rash caused by monoclonal EGFR inhibitors, topical ointment, rat model; type: in vivo; settings: SD rats
Protocol: An Experiment to Verify the Treatment of Rash Caused by Monoclonal EGFR Inhibitors with Topical Administration of Compounds of the Present Application on a Rat Animal Model After the SD rats were fed and adapted for one week (about 200 g), the rats were divided into 10 rats per group. The hair on the back of rats was gently removed with an electric razor one day before the experiment, and then an administration test was carried out. The EGFR monoclonal antibody solution diluted with normal saline was injected via tail vein twice a week, and the injection rate and time were shown in Table 4; the treatment experiment was started at the time point when rats developed a rash after continuous administration for 1-2 weeks. The experiments were divided into the administration group with the compound of the present application and the control group. During the treatment experiment, monoclonal antibody EGFR inhibitors were injected twice a week. the administration group applied the compound ointment of the present application on the back (about 3 cm*3 cm) of rats every day, and the control group applied blank matrix ointment on the back (about 3 cm*3 cm); after application, the rats were fixed with a fixed cyclinder for about 4 hours, and then the rats were released, with the residual drug at the application site wiped off with clean water, and put back into the cage. […] Table 4 lists the animal experiment combinations of monoclonal antibody EGFR inhibitors and the compound ointment of the present application, as well as the corresponding experiment results (wherein, the value in the control rate column=the number of rats whose rash is milder in the administration group than that in the control group/the total number of rats in the administration group×100%).

[2] = system: rash caused by small molecule EGFR inhibitors; test: Treatment of rash caused by small molecule EGFR inhibitors, topical ointment, rat model; type: in vivo, SD rats
Protocol: An Experiment to Verify the Treatment of Rash Caused by Small Molecule EGFR Inhibitors with Topical Administration of Compounds of the Present Application on a Rat Animal Model After the SD rats were fed and adapted for one week (about 200 g), the rats were divided into 10 rats per group. The hair on the back of rats was gently removed with an electric razor one day before the experiment, and then an intragastric administration test was carried out. EGFR inhibitors were dissolved in a sterile aqueous solution, and diluted with PBS buffer; the amount of each gavage was not more than 2 mL, and the dosage was shown in Table 3. […] The experiments were divided into the administration group with the compound of the present application and the control group. During the treatment experiment, EGFR inhibitors were intragastrically administered continuously every day. After the gavage, the administration group applied the compound ointment of the present application on the back (about 3 cm*3 cm) of rats, and the control group applied blank matrix ointment on the back (about 3 cm*3 cm); after application, the rats were fixed with a fixed cyclinder for about 4 hours, and then the rats were released, with the residual drug at the application site wiped off with clean water, and put back into the cage. The frequency of intragastric administration of EGFR inhibitors is shown in Table 3, but the compounds of the present application and blank ointment are applied only once a day. […] Table 3 lists the animal experiment combinations of various small molecule EGFR inhibitors and the compound ointment of the present application, as well as the corresponding experiment results (wherein, the value in the control rate column=the number of rats whose rash is milder in the administration group than that in the control group/the total number of rats in the administration group×100%).

[3] = system: rash caused by monoclonal EGFR inhibitors; test: Prevention of rash caused by monoclonal EGFR inhibitors, topical ointment, rat model; type: in vivo, SD rats
Protocol: An Experiment to Verify the Prevention of Rash Caused by Monoclonal EGFR Inhibitors with Topical Administration of Compounds of the Present Application on a Rat Animal Model After the SD rats were fed and adapted for one week (about 200 g), the rats were divided into 10 rats per group. The hair on the back of rats was gently removed with an electric razor one day before the experiment, and then an administration test was carried out. The experiments were divided into the administration group with the compound of the present application and the control group. The EGFR monoclonal antibody solution diluted with normal saline was injected via the tail vein twice a week, and the injection rate and time are shown in Table 2. After injection, the administration group applied the compound ointment of the present application on the backs (about 3 cm*3 cm) of rats every day, and the control group applied blank matrix ointment (about 0.5 g) to the backs (about 3 cm*3 cm) of rats every day. After drug application, the rats were fixed with a fixed cyclinder for 4 h; after that, the rats were released and the residual drug at the application site was wiped off with clear water. Monoclonal antibody EGFR inhibitors were injected via the tail vein twice a week, and the compound of the present application and blank ointment were applied once a day until obvious rashes appeared in the control group. […] Table 2 lists the animal experiment combinations of various monoclonal antibody EGFR inhibitors and the compound ointment of the present application, as well as the corresponding experiment results (wherein, the value in the control rate column=the number of rats whose rash is milder in the administration group than that in the control group/the total number of rats in the administration group×100%).

[4] = system: skin contact delayed-type hypersensitivity; test: Skin contact delayed-type hypersensitivity (DNFB) response test, ear swelling, topical ointment; type: in vivo; settings: topical to ears, DNFB DTH, Balb/c mice, compared to blank ointment
From the text: Therapeutic Effect of Topical Administration of Compounds of the Present Application in Skin Contact Delayed-Type Hypersensitivity Response Test in Mice Delayed-type hypersensitivity (DTH) response in mouse skin is considered to be an effective model for clinical contact dermatitis and other T cell-mediated cutaneous immune diseases, such as atopic dermatitis and psoriasis. The DTH in mice shares the common features with these cutaneous immune diseases, including immunoinfiltration with an increase of inflammatory cytokines and hyperproliferation of keratinocytes. Balb/c mice were sensitized by topical administration of the antigen 2,4-dinitrofluorobenzene (DNFB) to the shaved back of mice on Days 0 and 1. On Day 5, the thickness of the ears was measured using an engineering micrometer. The measurement result was recorded and used as a baseline. The animals were then challenged with a total of 20 μL of DNFB (10 μL for the internal pinna and 10 μL for the external pinna) topically dosed to both ears at a concentration of 0.2%. The ears were measured again 24-72 hours after challenge. The compound ointment of the present application was applied topically to the ears of the animals throughout the allergic and challenge periods (Days −1˜7) or before or throughout the challenge period (generally Days 4˜7). The therapeutic effect was expressed by a reduction in ear swelling compared to that of the blank ointment. The compound causing a reduction of 20% or more was considered effective. Table 5 lists the skin contact delayed-type hypersensitivity experiment results in mice treated with the compound of the present application.

[5] = Cetuximab 102 mg/kg twice a week via tail vein, ointment 5.0 wt%, 10 days of drug application
[6] = EAI045 80 mg/kg once a day, 8 dosing modelling days, ointment 1.0 wt% once a day
[7] = Cetuximab 100 mg/kg twice a week via tail vein, ointment 0.2 wt% once a day, 10 days
[8] = Panitumumab 10 mg/kg twice a week via tail vein, ointment 5.0 wt% once a day, 14 days
[9] = EAI045 80 mg/kg once a day, 8 dosing modelling days, ointment 10.0 wt% once a day
[10] = Osimertinib 60 mg/kg twice a day, 7 dosing modelling days, ointment 0.5 wt% once a day
[11] = Osimertinib 60 mg/kg twice a day, 7 dosing modelling days, ointment 5.0 wt% once a day
[12] = Afatinib 40 mg/kg once a day, 6 dosing modelling days, ointment 5.0 wt% once a day
[13] = EAI045 80 mg/kg once a day, 8 dosing modelling days, ointment 5.0 wt% once a day
[14] = Osimertinib 60 mg/kg twice a day, 7 dosing modelling days, ointment 1.0 wt% once a day

C[C@@H]1CN(C(=O)CC#N)[C@@]12CCN(c1ncnc3c1ccn3C(=O)N(C)CCOC(=O)C1CC1)C2 [Compound A27]
Control Rate ([1]; Cetuximab 102 mg/kg twice a week via tail vein, ointment 1.0 wt%, 10 days of drug application): 30%
Control Rate [1, 5]: 80%
Control Rate ([1]; Panitumumab 6 mg/kg twice a week via tail vein, ointment 0.1 wt%, 8 days of drug application): 60%
Control Rate ([1]; Panitumumab 6 mg/kg twice a week via tail vein, ointment 3.0 wt%, 8 days of drug application): 90%
Control Rate [2, 6]: 60%
Control Rate ([2]; EAI045 80 mg/kg once a day, 8 dosing modelling days, ointment 3.0 wt% once a day): 80%
Control Rate ([2]; Osimertinib 60 mg/kg twice a day, 7 dosing modelling days, ointment 0.2 wt% once a day): 40%
Control Rate ([2]; Osimertinib 60 mg/kg twice a day, 7 dosing modelling days, ointment 4.0 wt% once a day): 100%
Control Rate [3, 7]: 20%
Control Rate ([3]; Cetuximab 100 mg/kg twice a week via tail vein, ointment 3.0 wt% once a day, 10 days): 40%
Control Rate ([3]; Panitumumab 10 mg/kg twice a week via tail vein, ointment 1.0 wt% once a day, 14 days): 45%
Control Rate [3, 8]: 70%

C[C@@H]1CN(C(=O)CC#N)[C@@]12CCN(c1ncnc3c1ccn3C(=O)N(C)CCOC(=O)C1CCCCC1)C2 [Compound A28]
Control Rate ([1]; Cetuximab 102 mg/kg twice a week via tail vein, ointment 0.3 wt%, 10 days of drug application): 40%
Control Rate [1, 5]: 70%
Control Rate ([1]; Panitumumab 6 mg/kg twice a week via tail vein, ointment 2.0 wt%, 8 days of drug application): 60%
Control Rate ([1]; Panitumumab 6 mg/kg twice a week via tail vein, ointment 10.0 wt%, 8 days of drug application): 100%
Control Rate ([2]; BPI-7711 60 mg/kg once a day, 6 dosing modelling days, ointment 3.0 wt% once a day): 80%
Control Rate ([2]; Dacomitinib 10 mg/kg once a day, 5 dosing modelling days, ointment 0.2 wt% once a day): 30%
Control Rate ([2]; Dacomitinib 10 mg/kg once a day, 5 dosing modelling days, ointment 2.0 wt% once a day): 60%
Control Rate ([2]; Dacomitinib 10 mg/kg once a day, 5 dosing modelling days, ointment 5.0 wt% once a day): 80%
Control Rate ([2]; Dacomitinib 10 mg/kg once a day, 5 dosing modelling days, ointment 10.0 wt% once a day): 60%
Control Rate [2, 6]: 40%
Control Rate [2, 9]: 100%
Control Rate ([2]; Gefitinib 80 mg/kg twice a day, 10 dosing modelling days, ointment 1.0 wt% once a day): 30%
Control Rate ([2]; Gefitinib 80 mg/kg twice a day, 10 dosing modelling days, ointment 5.0 wt% once a day): 30%
Control Rate ([2]; Larotinib 20 mg/kg once a day, 6 dosing modelling days, ointment 3.0 wt% once a day): 40%
Control Rate [2, 10]: 20%
Control Rate [2, 11]: 60%
Control Rate [3, 7]: 30%
Control Rate ([3]; Cetuximab 100 mg/kg twice a week via tail vein, ointment 5.0 wt% once a day, 10 days): 70%
Control Rate ([3]; Panitumumab 10 mg/kg twice a week via tail vein, ointment 0.2 wt% once a day, 14 days): 45%
Control Rate [3, 8]: 100%

C[C@@H]1CN(C(=O)CC#N)[C@@]12CCN(c1ncnc3c1ccn3C(=O)N(C)CCOC(=O)c1ccn[nH]1)C2 [Compound A31]
Reduction Rate of Ear Swelling ([4]; ointment 1.0 wt%): 16%
Reduction Rate of Ear Swelling ([4]; ointment 5.0 wt%): 28%
Control Rate ([2]; Afatinib 40 mg/kg once a day, 6 dosing modelling days, ointment 0.1 wt% once a day): 10%
Control Rate ([2]; Afatinib 40 mg/kg once a day, 6 dosing modelling days, ointment 1.0 wt% once a day): 60%
Control Rate ([2]; Afatinib 40 mg/kg once a day, 6 dosing modelling days, ointment 3.0 wt% once a day): 70%
Control Rate [2, 12]: 90%
Control Rate ([2]; Afatinib 40 mg/kg once a day, 6 dosing modelling days, ointment 10.0 wt% once a day): 90%
Control Rate ([2]; EAI045 80 mg/kg once a day, 8 dosing modelling days, ointment 0.1 wt% once a day): 20%
Control Rate [2, 13]: 70%
Control Rate [2, 9]: 90%
Control Rate ([2]; Gefitinib 80 mg/kg twice a day, 10 dosing modelling days, ointment 0.3 wt% once a day): 20%
Control Rate ([2]; Gefitinib 80 mg/kg twice a day, 10 dosing modelling days, ointment 3.0 wt% once a day): 40%
Control Rate ([2]; Gefitinib 80 mg/kg twice a day, 10 dosing modelling days, ointment 10.0 wt% once a day): 90%
Control Rate [2, 10]: 40%
Control Rate [2, 14]: 60%
Control Rate [2, 11]: 70%

CN(CCOC(=O)C1CCCCC1)C(=O)n1ccc2c(-c3cnn(C4(CC#N)CN(C5CCN(C(=O)c6ccnc(C(F)(F)F)c6F)CC5)C4)c3)ncnc21 [Compound A36]
Reduction Rate of Ear Swelling ([4]; ointment 1.0 wt%): 29%
Reduction Rate of Ear Swelling ([4]; ointment 5.0 wt%): 34%
Control Rate ([2]; Afatinib 40 mg/kg once a day, 6 dosing modelling days, ointment 0.5 wt% once a day): 20%
Control Rate [2, 12]: 60%
Control Rate ([2]; BPI-7711 60 mg/kg once a day, 6 dosing modelling days, ointment 5.0 wt% once a day): 30%
Control Rate ([2]; EAI045 80 mg/kg once a day, 8 dosing modelling days, ointment 0.5 wt% once a day): 20%
Control Rate [2, 13]: 40%
Control Rate ([2]; Larotinib 20 mg/kg once a day, 6 dosing modelling days, ointment 5.0 wt% once a day): 60%
Control Rate [2, 14]: 30%
Control Rate ([2]; Osimertinib 60 mg/kg twice a day, 7 dosing modelling days, ointment 10.0 wt% once a day): 50%
